Values after ≈ are worked out from the molar mass of the structure shown.
Legend:
[1] = test system: HRV14 (1059); experiment: Anti-rhinovirus activity (MTT), HRV14; format: cell-based, human rhinovirus; set-up: Anti-Rhinovirus activity, HRV14: unit not given here; settings: for IC50 HRV 14: HeLa (Ohio strain) cells, MTT method, 33° C.
[2] = test system: HeLa-S3 cells; experiment: Cytotoxicity (MTT, without virus), HeLa-S3; settings: HeLa-S3, no virus, incubated for 4 days
[3] = test system: HRV1A (E28); experiment: Anti-rhinovirus activity (MTT), HRV1A; format: cell-based, human rhinovirus; set-up: Anti-Rhinovirus activity, HRV1A: unit not given here; settings: for IC50 HRV 1A: HeLa (Ohio strain) cells, MTT method, 33° C.
[4] = test system: echovirus type 11 (Echo 11, Gregory); experiment: In vitro anti-picornavirus activity (MTT), Echo 11; format: cell-based; settings: HeLa-S3 cells, MTT method, 37° C.
[5] = test system: HeLa cells; experiment: Cytotoxicity (MTT, without virus), HeLa; settings: HeLa, no virus, incubated for 4 days
[6] = test system: HRV41 (56110); experiment: Anti-rhinovirus spectrum (MTT), HRV41; format: cell-based, human rhinovirus; set-up: Anti-Rhinovirus activity, HRV41: unit not given here; settings: HRV41
[7] = test system: coxsackievirus type B4 (CB4,JVB); experiment: In vitro anti-picornavirus activity (MTT), CB4; format: cell-based; settings: HeLa cells, MTT method, 37° C.
[8] = test system: coxsackievirus type A7 (CA7); experiment: In vitro anti-picornavirus activity (MTT), CA7; format: cell-based; settings: HeLa-S3 cells, MTT method, 37° C.
[9] = test system: HRV32 (363); experiment: Anti-rhinovirus spectrum (MTT), HRV32; format: cell-based, human rhinovirus; set-up: Anti-Rhinovirus activity, HRV32: unit not given here; settings: HRV32
[10] = test system: HRV 2 (HGP); experiment: Anti-rhinovirus activity (MTT), HRV2; format: cell-based, human rhinovirus; set-up: Anti-Rhinovirus activity, HRV2: unit not given here; settings: for IC50 HRV2: HeLa (Ohio strain) cells, MTT method, 33° C.
[11] = test system: human rhinovirus type 1B (HRV 1B, B632); experiment: Anti-rhinovirus activity (MTT), HRV1B; format: cell-based; set-up: Anti-Rhinovirus activity, HRV1B: unit not given here; settings: for IC50 HRV1B: HeLa (Ohio strain) cells, MTT method, 33° C.
[12] = test system: HRV33 (1200); experiment: Anti-rhinovirus spectrum (MTT), HRV33; format: cell-based, human rhinovirus; set-up: Anti-Rhinovirus activity, HRV33: unit not given here; settings: HRV33
[13] = test system: HRV31 (41F); experiment: Anti-rhinovirus spectrum (MTT), HRV31; format: cell-based, human rhinovirus; set-up: Anti-Rhinovirus activity, HRV31: unit not given here; settings: HRV31
[14] = test system: clinical isolate (89229T); experiment: microbe, parasite or virus in culture; format: cell-based, human rhinovirus; set-up: Anti-Rhinovirus activity, Clinical isolated strain: unit not given here; settings: Clinical isolated strain
[15] = test system: HRV13 (353); experiment: Anti-rhinovirus spectrum (MTT), HRV13; format: cell-based, human rhinovirus; set-up: Anti-Rhinovirus activity, HRV13: unit not given here; settings: HRV13
[16] = test system: HRV36 (342H); experiment: Anti-rhinovirus spectrum (MTT), HRV36; format: cell-based, human rhinovirus; set-up: Anti-Rhinovirus activity, HRV36: unit not given here; settings: HRV36
[17] = test system: HeLa (Ohio strain)cells; experiment: Cytotoxicity (MTT, without virus), HeLa(Ohio); settings: HeLa(Ohio), no virus, incubated for 4 days
[18] = test system: HRV10 (204-CV14); experiment: Anti-rhinovirus spectrum (MTT), HRV10; format: cell-based, human rhinovirus; set-up: Anti-Rhinovirus activity, HRV10: unit not given here; settings: HRV10
[19] = test system: Poliovirus type 1 (Polio 1, Sabin); experiment: microbe, parasite or virus in culture; format: cell-based
[20] = test system: HRV39 (209); experiment: Anti-rhinovirus spectrum (MTT), HRV39; format: cell-based, human rhinovirus; set-up: Anti-Rhinovirus activity, HRV39: unit not given here; settings: HRV39
[21] = test system: HRV29 (5582); experiment: Anti-rhinovirus spectrum (MTT), HRV29; format: cell-based, human rhinovirus; set-up: Anti-Rhinovirus activity, HRV29: unit not given here; settings: HRV29
[22] = test system: HRV50(A2#58); experiment: Anti-rhinovirus spectrum (MTT), HRV50; format: cell-based, human rhinovirus; set-up: Anti-Rhinovirus activity, HRV50: unit not given here; settings: HRV50
[23] = test system: HRV5; experiment: Anti-rhinovirus spectrum (MTT), HRV5; format: cell-based, human rhinovirus; set-up: Anti-Rhinovirus activity, HRV5: unit not given here; settings: HRV5
[24] = test system: HRV3(FEB); experiment: Anti-rhinovirus spectrum (MTT), HRV3; format: cell-based, human rhinovirus; set-up: Anti-Rhinovirus activity, HRV3: unit not given here; settings: HRV3
[25] = test system: HRV 89 (41617-Gallo); experiment: Anti-rhinovirus activity (MTT), HRV89; format: cell-based, human rhinovirus; set-up: Anti-Rhinovirus activity, HRV89: unit not given here; settings: for IC50 HRV89: HeLa (Ohio strain) cells, MTT method, 33° C.
[26] = test system: HRV8(MRH); experiment: Anti-rhinovirus spectrum (MTT), HRV8; format: cell-based, human rhinovirus; set-up: Anti-Rhinovirus activity, HRV8: unit not given here; settings: HRV8
[27] = test system: HRV16 (11757); experiment: Anti-rhinovirus spectrum (MTT), HRV16; format: cell-based, human rhinovirus; set-up: Anti-Rhinovirus activity, HRV16: unit not given here; settings: HRV16
[28] = test system: HRV61 (6669-CV39); experiment: Anti-rhinovirus spectrum (MTT), HRV61; format: cell-based, human rhinovirus; set-up: Anti-Rhinovirus activity, HRV61: unit not given here; settings: HRV61
[29] = test system: HRV21 (47); experiment: Anti-rhinovirus spectrum (MTT), HRV21; format: cell-based, human rhinovirus; set-up: Anti-Rhinovirus activity, HRV21: unit not given here; settings: HRV21

SMILES	Anti-Rhinovirus activity, HRV14 [1]	IC50 HRV 14 [1]	Cytotoxicity CC50 HeLa-S3 [2]	Anti-Rhinovirus activity, HRV1A [3]	IC50 HRV 1A [3]	IC50 Echo 11 [4]	Cytotoxicity CC50 HeLa [5]	Anti-Rhinovirus activity, HRV41 [6]	IC50 CB4 [7]	IC50 CA7 [8]	Anti-Rhinovirus activity, HRV32 [9]	Anti-Rhinovirus activity, HRV2 [10]	IC50 HRV2 [10]	Anti-Rhinovirus activity, HRV1B [11]	IC50 HRV1B [11]	Anti-Rhinovirus activity, HRV33 [12]	Anti-Rhinovirus activity, HRV31 [13]	Anti-Rhinovirus activity, Clinical isolated strain [14]	Anti-Rhinovirus activity, HRV13 [15]	Anti-Rhinovirus activity, HRV36 [16]	other results
CCn1c2c(c(=O)c3cc(CC(C)C)ccc31)Cc1cc(OC)ccc1-2 [Compound B15]	0.84	0.84 µg/mL (≈ 2.42 µM)	>2.5 µg/mL	>2.5	>2.5 µg/mL	0.27 µg/mL (≈ 0.777 µM)	>2.5 µg/mL	0.18	1.9 µg/mL (≈ 5.47 µM)	2.2 µg/mL (≈ 6.33 µM)	0.65	0.44	0.44 µg/mL (≈ 1.27 µM)	0.36	0.36 µg/mL (≈ 1.04 µM)	0.29	0.38	1.1	0.18	0.32	Cytotoxicity CC50 HeLa(Ohio) [17]: >2.5 µg/mL; Anti-Rhinovirus activity, HRV10 [18]: 1.1; IC50 Polio 1 [19]: 0.49 µg/mL (≈ 1.41 µM); Anti-Rhinovirus activity, HRV39 [20]: 0.46; Anti-Rhinovirus activity, HRV29 [21]: 0.67; Anti-Rhinovirus activity, HRV50 [22]: 0.28; Anti-Rhinovirus activity, HRV5 [23]: 0.39; Anti-Rhinovirus activity, HRV3 [24]: 1.1; Anti-Rhinovirus activity, HRV89 [25]: 0.39; IC50 HRV89 [25]: 0.39 µg/mL (≈ 1.12 µM); Anti-Rhinovirus activity, HRV8 [26]: 0.38; Anti-Rhinovirus activity, HRV16 [27]: 1.2; Anti-Rhinovirus activity, HRV61 [28]: 0.39; Anti-Rhinovirus activity, HRV21 [29]: 0.34
CCn1c2c(c(=O)c3cc(C(C)C)ccc31)Cc1cc(OC)c(C)cc1-2 [Compound B20]	0.51	0.51 µg/mL (≈ 1.47 µM)	>2.5 µg/mL	>2.5	>2.5 µg/mL	0.28 µg/mL (≈ 0.806 µM)	>2.5 µg/mL	0.12	0.60 µg/mL (≈ 1.73 µM)	1.4 µg/mL (≈ 4.03 µM)	0.29	0.19	0.19 µg/mL (≈ 0.547 µM)	0.23	0.23 µg/mL (≈ 0.662 µM)	0.097	0.18	0.49	0.13	0.20	Cytotoxicity CC50 HeLa(Ohio) [17]: >2.5 µg/mL; Anti-Rhinovirus activity, HRV10 [18]: 0.42; IC50 Polio 1 [19]: 0.40 µg/mL (≈ 1.15 µM); Anti-Rhinovirus activity, HRV39 [20]: 0.35; Anti-Rhinovirus activity, HRV29 [21]: 0.44; Anti-Rhinovirus activity, HRV50 [22]: 0.18; Anti-Rhinovirus activity, HRV5 [23]: 0.23; Anti-Rhinovirus activity, HRV3 [24]: 0.50; Anti-Rhinovirus activity, HRV89 [25]: 0.18; IC50 HRV89 [25]: 0.18 µg/mL (≈ 0.518 µM); Anti-Rhinovirus activity, HRV8 [26]: 0.29; Anti-Rhinovirus activity, HRV16 [27]: 0.44; Anti-Rhinovirus activity, HRV61 [28]: 0.31; Anti-Rhinovirus activity, HRV21 [29]: 0.14

From US7109338B2, “1,2-disubstituted 1,4-dihydro-4-oxoquinoline compounds” (priority 1999, dated 2006)
